Experimental findings from patent US12295365B2, “Composition including an antimicrobial boosting agent including a sultaine and methods of increasing the antimicrobial effectiveness of a composition” (KIMBERLY-CLARK WORLDWIDE, INC., priority 2018, dated 2025) are described below.

Where a name gives a salt, the structure may show the parent alone. A value given as a limit tells only on which side of the number the result lay.

The subject of one assay is B. cepacia (ATCC 25416). Nature of the assay: Minimum Effective Concentration (MEC) Test Method. Format: cell-based, Burkholderia cepacia. Conditions: boosting agent (the label) at 5 mmol/L; 24 hours at room temperature. The procedure:
Initial testing was conducted to screen a variety of surfactants in researching for potential antimicrobial boosting agents. The initial testing followed the methodology as described in the Minimum Effective Concentration (“MEC”) Test Method described in the Test Methods section herein. To summarize, the MEC testing paired a variety of potential antimicrobial boosting agents with a variety of known antimicrobial agents to determine the MEC of the respective antimicrobial agent that must be used to provide an effective antimicrobial result, as described in further detail in the Test Methods section. The more positive the boosting characteristics of an antimicrobial boosting agent, then the lower the MEC that would be required for the paired antimicrobial agent. It is to be noted that the molarities listed in Table 1 are approximate values that were calculated based on the estimated activities of the ingredients and the molecular weights of the active ingredients. In instances where an exact activity was not available for an ingredient blend, the ingredient blend activity was estimated as the average of the upper and lower limits of the specification provided by the manufacturer of such blend. In instances where an exact molecular weight could not be calculated (for example, in compounds derived from a natural oil like coconut oil), the molecular weight of the active was estimated based on a weighted average of the molecular weights of the constituent species.
The Minimum Effective Concentration Test Method discussed herein began by adding B. cepacia (ATCC 25416) culture at a final concentration of approximately 5×10^6 CFU/mL to the composition to be challenged. The challenged composition was then allowed to incubate at room temperature for 24 hours. After 24 hours, a preservative neutralizing broth was added to the mixture and measurements were subsequently taken to determine the concentration of B. cepacia still remaining after exposure to the test composition.
The Minimum Effective Concentration was determined by completing the process described above on a series of compositions with the same concentration of antimicrobial boosting agent, but with different concentrations of antimicrobial agent. The Minimum Effective Concentration of antimicrobial agent for any given value of antimicrobial boosting agent was defined as the minimum concentration of antimicrobial agent required to reduce the concentration of B. cepacia to a level below the detection threshold for the test method, which was approximately 100 CFU/mL. In instances where multiple rounds of Minimum Effective Concentration testing were completed, the value reported is the mean of the Minimum Effective Concentration values generated by each individual series of tests.
Regarding `CCCCCCCC[N+](C)(C)CC(=O)[O-]` [Octyl Betaine], the “MEC of Lactic Acid (Purac FCC 88) paired with the potential boosting agent” value (shortened to “MEC of Lactic Acid (Purac FCC 88) paired”) is recorded as 40 mmol/L.
`C[N+](C)(CCCS(=O)(=O)[O-])Cc1ccccc1` [Benzyl Sultaine, 3-(Benzyldimethylammonio)propanesulfonate]: the “MEC of Lactic Acid (Purac FCC 88) paired” value is reported as 40 mmol/L.
Regarding Lauramidopropyl Hydroxysultaine, the “MEC of Lactic Acid (Purac FCC 88) paired” value is 30 mmol/L.
In the case of `CCCCCCCCCCCC(=O)OC(C)C(=O)OC(C)C(=O)[O-].[Na+]` (stereo not shown) [Sodium Lauroyl Lactylate], the “MEC of Lactic Acid (Purac FCC 88) paired” value is reported as 30 mmol/L.
Take Laureth-3 Phosphate: the “MEC of Lactic Acid (Purac FCC 88) paired” value is listed as 40 mmol/L.
For the molecule `CCCCCCCCCC[N+](C)(C)CCCS(=O)(=O)[O-]` [Decyl Sultaine, 3-(Decyldimethylammonio)-propanesulfonate inner salt], the “MEC of Hydroxyacetophenone (SymSave H) paired with the potential boosting agent” value is listed as 10 mmol/L and the “MEC of Lactic Acid (Purac FCC 88) paired” value was 30 mmol/L.
For the molecule `CCCCCCCCCCCC[N+](C)(C)CC(O)CS(=O)(=O)[O-]` (stereo not shown) [Lauryl Hydroxysultaine], the “MEC of Caprylhydroxamic Acid (Zeastat) paired with the potential boosting agent” value is below 2 mmol/L, the “MEC of Hydroxyacetophenone (SymSave H) paired with the potential boosting agent” value is below 5 mmol/L, the “MEC of Lactic Acid (Purac FCC 88) paired” value amounted to 17 mmol/L and the “MEC of Sodium Benzoate paired with the potential boosting agent” value was below 1 mmol/L.
“Sodium Laurylglucosides Hydroxypropylsulfonate”: the “MEC of Lactic Acid (Purac FCC 88) paired” value is on record as above 50 mmol/L.
As for `CCCCCCCC[N+](C)(C)[O-]` [Octyldimethylamine Oxide], the “MEC of Lactic Acid (Purac FCC 88) paired” value is 40 mmol/L.
On the same count and under the same terms, the figure for `CCCCCCCC[N+](C)(C)CCCS(=O)(=O)[O-]` [Caprylyl Sultaine, 3-(N,N-Dimethyloctylammonio)propanesulfonate inner salt] is 40 mmol/L; for `CCCCCCCCCCCCCC[N+](C)(C)CCCS(=O)(=O)[O-]` [Myristyl Sultaine, 3-(N,N-Dimethylmyristylammonio)propanesulfonate] it is 40 mmol/L.
Regarding `C[N+](C)(CCO)CC(O)C[N+](C)(C)CCO.[Cl-].[Cl-]` [Hydroxypropyl Bis-Hydroxyethyldimonium Chloride], the “MEC of Lactic Acid (Purac FCC 88) paired” value is reported as 50 mmol/L.
In the case of `CCCCCCCCCCCCCCCC[N+](C)(C)CC(=O)[O-]` [Cetyl Betaine], the “MEC of Lactic Acid (Purac FCC 88) paired” value was 40 mmol/L.
Consider Lauryl Glucoside, for which the “MEC of Lactic Acid (Purac FCC 88) paired” value was above 30 mmol/L and the “MEC of Sodium Benzoate paired with the potential boosting agent” value came out at 10 mmol/L.
In the case of `CCCCCCCCCCCC[N+](C)(C)CCCS(=O)(=O)[O-]` [Lauryl Sultaine, N-Dodecyl-N,N-dimethyl-3-ammonio-1-propanesulfonate], the “MEC of Hydroxyacetophenone (SymSave H) paired with the potential boosting agent” value is on record as 10 mmol/L and the “MEC of Lactic Acid (Purac FCC 88) paired” value is 20 mmol/L.

Staying with this assay, now noted: no boosting agent; 24 hours at room temperature.
For `CCCCCCCC(=O)NO` [Caprylhydroxamic Acid], the “MEC of Caprylhydroxamic Acid (Zeastat)” value came to 10 mmol/L.
Regarding `CC(O)C(=O)O` (stereo not shown) [Lactic Acid], the “MEC of Lactic Acid (Purac FCC 88)” value is on record as 60 mmol/L.
On to `O=C([O-])c1ccccc1.[Na+]` [Sodium Benzoate], for which the “MEC of Sodium Benzoate” value came to 7.5 mmol/L.
In the case of `O=C(CO)c1ccccc1` [Hydroxyacetophenone], the “MEC of Hydroxyacetophenone (SymSave H)” value worked out at 20 mmol/L.
